# Calls of active or inactive are those of the source.
# Biological target: Cytochrome P450 2D6 (Homo sapiens, UniProt P10635);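 further: CYP2D6 member of a cytochrome P450 panel assay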
# Experiment: not given
# Details: not given
# Cytochrome P450 2D6, sequence (P10635 whole entry): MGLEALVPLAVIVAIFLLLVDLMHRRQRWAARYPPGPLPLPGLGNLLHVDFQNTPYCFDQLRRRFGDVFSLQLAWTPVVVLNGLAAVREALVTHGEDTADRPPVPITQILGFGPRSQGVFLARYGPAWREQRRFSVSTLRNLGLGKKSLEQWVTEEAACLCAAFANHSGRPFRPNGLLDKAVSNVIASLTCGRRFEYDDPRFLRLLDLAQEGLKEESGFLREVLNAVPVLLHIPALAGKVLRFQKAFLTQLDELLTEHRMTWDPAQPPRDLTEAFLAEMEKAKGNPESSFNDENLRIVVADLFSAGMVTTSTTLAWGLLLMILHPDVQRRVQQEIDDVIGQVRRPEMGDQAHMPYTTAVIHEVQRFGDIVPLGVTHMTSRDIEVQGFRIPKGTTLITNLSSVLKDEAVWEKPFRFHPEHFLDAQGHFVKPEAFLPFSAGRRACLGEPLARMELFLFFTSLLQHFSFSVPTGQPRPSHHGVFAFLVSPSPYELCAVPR
row,Compound,AC50
1,CCOC(=O)c1ccc(Nc2nc(-c3cccnc3)nc3ccccc23)cc1,10 µM (inconclusive)
2,CN(C)C(=O)c1ccc(-c2nccc(N(C)Cc3ccco3)n2)cc1,25.1 µM (inconclusive)
3,Cc1ccccc1CSc1nnc(-c2cccs2)n1Cc1ccco1,1.12 µM (inconclusive)
4,C=CC[C@@H]1C=C[C@H](O/N=C(\C)CCN2CCCc3nc(C)c(C)cc32)[C@H](CO)O1,3.16 µM (inconclusive)
5,COc1ccc(CCN2/C(=N/C(=O)CCC(=O)O)SC3CS(=O)(=O)CC32)cc1 (configuration not stated),39.8 µM (inconclusive)

# System: not listed separately
# Experiment: Luminescence Cell-Based Dose Response HTS to Identify Inhibitors of 5'UTR Stem-Loop Driven Prion Protein mRNA Translation in H4 Neuroglioblastoma Cells. [Related pubchem assays: 1827 (Project Summary), 1813 (Primary HTS)]
# Format: functional
# Details: not given
row,Compound,EC50
1,Cc1ccc(OCC(=O)N/N=C/c2cn(Cc3ccccc3)c3ccccc23)cc1,13.1 µM (active)

# System: Streptococcus
# Experiment: Group A Streptococcus viability loss, dose response, counter-screen for streptokinase expression inhibitor project, luminescence, BacTiterGlo (AID 1915);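 further: potency for reduction of bacterial viability or growth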
# Format: functional, organism-based
# Details: not given
row,Compound,EC50
1,CC(C)(C)OC(=O)[C@H](Cc1ccccc1)NC(=O)c1[nH]cnc1C(=O)Nc1cccc(Cl)c1,21.7 µM (active)

# Biological target: T1, Cytochrome P450 1A2 (Homo sapiens, UniProt P05177);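 further: PubChem cytochrome P450 panel assay, CYP1A2 panel member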
# T1 sequence (P05177 whole entry): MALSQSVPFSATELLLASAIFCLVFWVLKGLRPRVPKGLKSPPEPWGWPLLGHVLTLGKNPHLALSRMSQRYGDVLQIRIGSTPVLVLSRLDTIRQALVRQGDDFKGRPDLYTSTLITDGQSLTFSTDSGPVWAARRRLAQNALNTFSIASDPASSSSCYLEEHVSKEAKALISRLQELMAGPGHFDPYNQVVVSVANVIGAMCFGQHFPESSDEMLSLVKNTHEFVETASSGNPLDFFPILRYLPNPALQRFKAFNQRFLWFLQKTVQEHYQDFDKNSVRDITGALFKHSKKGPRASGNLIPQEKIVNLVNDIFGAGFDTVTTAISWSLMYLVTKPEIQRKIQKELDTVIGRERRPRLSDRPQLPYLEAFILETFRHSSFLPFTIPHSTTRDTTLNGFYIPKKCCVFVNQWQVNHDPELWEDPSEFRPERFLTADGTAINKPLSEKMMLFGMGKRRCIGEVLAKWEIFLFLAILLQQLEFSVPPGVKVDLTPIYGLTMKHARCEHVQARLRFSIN
# Experiment: not given
# Details: not given
row,Compound,AC50
1,C[C@@H](CC(=O)O)[C@@H](N)C(=O)O,31.6 µM (inconclusive)
2,Cc1cc(NC(=O)c2c([N+](=O)[O-])c(C)nn2C)no1,39.8 µM (inconclusive)
3,CCOC(=O)Nc1ccc(C(=O)NCC2CCCO2)cc1 (configuration not stated),39.8 µM (inconclusive)
4,C=CCn1c(Cc2c[nH]c3ccccc23)nnc1SCC(=O)NCc1ccccc1,12.6 µM (inconclusive)
5,C(=C/c1ccccc1)/CN1CCN(CCOC(c2ccccc2)c2ccccc2)CC1,20 µM (inconclusive)
6,Cc1nn(C(C)C(=O)Nc2ccc(Cl)cn2)c(C)c1[N+](=O)[O-] (configuration not stated),12.6 µM (inconclusive)
7,N#Cc1ccc(CN2CC[C@@]3(CCCN(C(=O)Oc4ccccc4)C3)C2)cc1,12.6 µM (inconclusive)
8,"O=[N+]([O-])c1cc(O)c(O)c([N+](=O)[O-])c1 [3,5-DINITROCATECHOL (OR-486)]",39.8 µM (inconclusive)

# System: not listed separately
# Experiment: inhibitors of SNCA 5'UTR-driven reporter translation, confirmation, H4 neuroglioma cells, luminescence (AID 1988)
# Format: functional, cell-based
# Details: not given
row,Compound,EC50
1,Cc1ccc(OCC(=O)N/N=C/c2cn(Cc3ccccc3)c3ccccc23)cc1,5.86 µM (active)

# System: not listed separately
# Experiment: Luminescence Cell-Based Dose Retest to Confirm Inhibitors of Cancer Stem Cells. [Related pubchem assays (depositor defined):AID2717, AID2721]
# Format: functional
# Details: Homo sapiens
row,Compound,AC50
1,Fc1cccc(-n2c(-c3cccs3)nc3nc4ccccc4nc32)c1,1.69 µM (active)
2,CC(C)(C)OC(=O)[C@H](Cc1ccccc1)NC(=O)c1[nH]cnc1C(=O)Nc1cccc(Cl)c1,3.36 µM (active)
3,COc1c(OC(C)=O)ccc(/C=C/c2ccc3cccc(OCc4ccccc4)c3n2)c1[N+](=O)[O-],1.67 µM (active)
4,CC(=O)c1ccc(-c2ccc([C@H]3[C@@H]4C=CCC[C@@]4(C)C(=O)N3Cc3ccccc3)c(F)c2)cc1,4.4 µM (active)
5,CCOC(=O)c1c(NC(NC(=O)C(C)C)C(Cl)(Cl)Cl)sc2c1CCC2 (configuration not stated),3.39 µM (active)
6,COc1ccc(C(=O)Nc2cccc(/C=C/c3nc(O)c4ccccc4n3)c2)cc1,3.7 µM (active)
7,COc1ccc(N(CC(=O)Nc2cc(C)ccc2C)S(=O)(=O)c2c(C)noc2C)cc1,34.5 µM (active)
8,O=C(Nc1ccc(Nc2ccccc2)cc1)c1ccccc1,13.7 µM (active)

# Biological target: T2, Streptokinase A (Streptococcus pyogenes serotype M1, UniProt P10520)
# T2 sequence (P10520 whole entry): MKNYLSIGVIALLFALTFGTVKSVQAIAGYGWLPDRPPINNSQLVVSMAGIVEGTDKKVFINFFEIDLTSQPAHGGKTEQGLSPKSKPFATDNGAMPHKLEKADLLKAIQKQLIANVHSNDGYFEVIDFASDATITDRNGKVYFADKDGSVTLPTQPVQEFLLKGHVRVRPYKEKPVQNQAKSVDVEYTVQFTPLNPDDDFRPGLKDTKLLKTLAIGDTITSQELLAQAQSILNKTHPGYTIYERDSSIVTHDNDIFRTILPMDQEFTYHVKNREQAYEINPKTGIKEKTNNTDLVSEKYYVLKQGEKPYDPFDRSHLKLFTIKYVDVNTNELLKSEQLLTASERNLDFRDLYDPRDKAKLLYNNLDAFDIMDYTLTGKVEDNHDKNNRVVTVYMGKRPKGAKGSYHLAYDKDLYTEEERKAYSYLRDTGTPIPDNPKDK
# Experiment: S. pyogenes streptokinase expression inhibitors, potency, dose response, plasminogen activation absorbance, OD405 (AID 1914);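 further: secreted streptokinase activity via plasminogen activation per viability signal from cell pellet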
# Format: functional, Streptococcus pyogenes M1 GAS
# Details: not given
row,Compound,EC50
1,CC(C)(C)OC(=O)[C@H](Cc1ccccc1)NC(=O)c1[nH]cnc1C(=O)Nc1cccc(Cl)c1,38.3 µM (active)

# System: not listed separately
# Experiment: inhibitors of firefly luciferase expression or activity, dose response, H4 neuroglioma cells, luminescence (AID 1990)
# Format: functional, cell-based
# Details: not given
row,Compound,EC50
1,Cc1ccc(OCC(=O)N/N=C/c2cn(Cc3ccccc3)c3ccccc23)cc1,9.88 µM (active)

# System: Streptococcus sp. 'group A'
# Experiment: growth inhibition of control SK(-) GAS strain, dose response, counter-screen for streptokinase expression inhibitor project, luminescence, kanamycin, BacTiterGlo, confirmation (AID 1900)
# Format: functional, organism-based
# Details: not given
row,Compound,EC50
1,CC(C)(C)OC(=O)[C@H](Cc1ccccc1)NC(=O)c1[nH]cnc1C(=O)Nc1cccc(Cl)c1,3.64 µM (active)

# System: not listed separately
# Experiment: cells
# Format: functional
# Details: not given
row,Compound,IC50
1,CCOC(=O)COc1ccc2c3c(c(=O)oc2c1C)CCC3,> 50 µM (active)
2,CCOCCOC(=O)COc1ccc2c(-c3ccccc3)cc(=O)oc2c1,1.77 µM (active)
3,CCOC(=O)CCNC(=O)c1ccc2nc(C3CCCCC3)oc2c1,23.8 µM (active)
4,O=C(OCc1ccc([N+](=O)[O-])cc1)c1cc2ccccc2oc1=O,23.2 µM (active)
5,Cc1csc(NC(=O)c2cc([N+](=O)[O-])cc([N+](=O)[O-])c2)n1,13.2 µM (active)
6,CCOC(=O)Cn1cc(C#N)c2cccc(CC)c21,4.78 µM (active)
7,CCc1nnc(N/N=C/c2ccc(N3CCC(C)CC3)c([N+](=O)[O-])c2)n1N,20 µM (active)
8,CC1C/C(=N/NC(=O)c2cccc(F)c2)c2ccc(O)cc2C1 (configuration not stated),34.6 µM (active)

# Biological target: Cytochrome P450 2C19 (Homo sapiens, UniProt P33261)
# Experiment: Cytochrome panel assay with activity outcomes. Panel member name: p450-cyp2c19 Compounds with AC50 equal or less than 10 uM are considered active
# Format: functional
# Details: not given
# Cytochrome P450 2C19, sequence (P33261 whole entry): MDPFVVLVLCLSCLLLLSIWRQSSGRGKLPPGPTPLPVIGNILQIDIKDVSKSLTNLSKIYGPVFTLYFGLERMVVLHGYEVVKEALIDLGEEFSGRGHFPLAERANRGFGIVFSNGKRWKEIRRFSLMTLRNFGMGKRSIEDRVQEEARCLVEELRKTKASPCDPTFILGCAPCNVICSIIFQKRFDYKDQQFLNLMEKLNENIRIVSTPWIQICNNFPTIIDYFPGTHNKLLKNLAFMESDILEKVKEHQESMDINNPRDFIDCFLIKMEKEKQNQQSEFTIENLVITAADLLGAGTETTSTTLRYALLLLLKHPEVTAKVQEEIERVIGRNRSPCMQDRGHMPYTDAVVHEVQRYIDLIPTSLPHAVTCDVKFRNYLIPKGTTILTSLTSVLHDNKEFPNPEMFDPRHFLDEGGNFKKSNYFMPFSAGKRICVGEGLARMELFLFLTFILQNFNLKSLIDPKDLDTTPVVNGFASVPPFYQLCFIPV
row,Compound,AC50
1,Cc1cc(NC(=O)c2c([N+](=O)[O-])c(C)nn2C)no1,inconclusive

# Same assay, conditions: read-out: AC50
row,Compound,AC50
1,CN(C)C(=O)c1ccc(-c2nccc(N(C)Cc3ccco3)n2)cc1,25.1 µM (inconclusive)

# Source: ChEMBL document CHEMBL1201862, “PubChem BioAssay data set” (2004)
